Values of other authors, collected in article PMC5144109 (Analytical Chemistry, 2016).
Entries after “also recorded” stand apart in the source; their conditions may differ. Square brackets hold non-standard residues; d marks the D form. Ends that are not written are not given here.

Experiments:
aminopeptidase M (APM) = biological target: T1, aminopeptidase M (APM) (Sus scrofa, UniProt P15145); conditions: positive and negative control of the digestion experiments
T1 sequence (P15145 1-963): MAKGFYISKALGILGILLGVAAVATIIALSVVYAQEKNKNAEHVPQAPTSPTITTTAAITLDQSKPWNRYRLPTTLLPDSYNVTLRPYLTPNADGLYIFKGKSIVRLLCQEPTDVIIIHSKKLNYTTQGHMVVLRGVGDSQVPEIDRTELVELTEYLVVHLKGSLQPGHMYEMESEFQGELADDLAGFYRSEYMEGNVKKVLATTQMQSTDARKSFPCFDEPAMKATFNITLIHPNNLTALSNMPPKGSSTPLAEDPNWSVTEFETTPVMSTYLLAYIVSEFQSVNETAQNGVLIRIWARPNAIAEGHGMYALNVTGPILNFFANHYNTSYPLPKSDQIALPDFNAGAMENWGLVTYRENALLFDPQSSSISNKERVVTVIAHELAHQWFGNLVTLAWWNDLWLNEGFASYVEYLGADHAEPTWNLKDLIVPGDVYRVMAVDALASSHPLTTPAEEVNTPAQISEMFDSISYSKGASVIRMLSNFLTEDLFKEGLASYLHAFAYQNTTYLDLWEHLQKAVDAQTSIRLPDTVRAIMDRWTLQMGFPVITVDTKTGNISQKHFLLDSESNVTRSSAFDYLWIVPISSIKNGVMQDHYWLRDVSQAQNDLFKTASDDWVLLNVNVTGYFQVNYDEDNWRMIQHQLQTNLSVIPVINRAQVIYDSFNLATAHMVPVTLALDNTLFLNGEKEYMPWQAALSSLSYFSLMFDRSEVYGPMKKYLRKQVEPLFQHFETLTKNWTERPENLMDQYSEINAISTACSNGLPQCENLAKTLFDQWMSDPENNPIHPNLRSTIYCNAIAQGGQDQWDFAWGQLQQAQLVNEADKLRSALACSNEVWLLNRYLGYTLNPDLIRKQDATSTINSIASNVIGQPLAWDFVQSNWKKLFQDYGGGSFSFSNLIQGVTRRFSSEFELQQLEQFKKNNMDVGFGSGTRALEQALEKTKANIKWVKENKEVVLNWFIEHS

opioid receptors = conditions: in mammals

Substance	digestion by APM (control peptides) (aminopeptidase M (APM))	potency compared with morphine (opioid receptors)
Asn-[dW]-Phe-NH2 [NdWFamide]	is not digested by APM; also recorded: known to resist degradation by APM	
Human angiotensin I acetate salt hydrate	is digested by APM	
dermorphin		higher potency than morphine
